Assay [1] has as its target T1, h-TGR5 (Homo sapiens, UniProt Q8TDU6).
T1 construct: expressed in transfected cells
T1 sequence (Q8TDU6 1-330): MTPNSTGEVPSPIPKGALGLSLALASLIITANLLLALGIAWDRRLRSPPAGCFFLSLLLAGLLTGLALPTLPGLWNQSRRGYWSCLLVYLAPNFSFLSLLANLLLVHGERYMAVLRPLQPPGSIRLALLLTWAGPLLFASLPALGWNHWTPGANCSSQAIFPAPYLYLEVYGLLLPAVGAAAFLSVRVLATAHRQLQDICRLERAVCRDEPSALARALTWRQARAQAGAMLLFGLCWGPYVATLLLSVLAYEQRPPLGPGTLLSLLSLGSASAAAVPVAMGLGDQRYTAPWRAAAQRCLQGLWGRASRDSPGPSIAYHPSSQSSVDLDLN
Put plainly: TGR5 cAMP Assay using Cisbio cAMP Dynamic2 htrf kit (hTGR5CRE-luc HEK 293 cells). Particulars: h-TGR5 cAMP EC50, Table 1; read-out: cAMP (EC50). It is filed as cell-based. On the procedure: Compounds were diluted in DPBS with 5% DMSO (8-point serial dilution by half logs) in a 96-well plate and 1 μL was transferred to a 384-well assay plate in quadruplicate. The d2-cAMP and anti-cAMP Ab-cryptate stock solution were prepared as per the instructions in the Cisbio™ (Bedford, Mass.) kit. […] Cells were adjusted to 0.44×10^6 cells/ml followed by addition of IBMX to a final concentration of 0.5 mM. The cells were then mixed with d2-cAMP solution (7.1 mL cells+100 ul d2-cAMP) and 4000 cells (9 μL) were transferred to each well of the 384-well assay plate. Cells without d2-cAMP were added to eight wells as a negative control. The plate was covered and incubated at room temp for 30 min. Then 10 μL of Ab-cryptate solution was added to each well of the assay plate and incubated for 1 hr. The plate was read on an EnVision™ plate reader (Perkin-Elmer, Waltham, Mass.) and the DeltaF value was calculated as per the instructions in the Cisbio™ kit.
In the following tables, EC50 values determined according to the TGR5 cAMP Assay described herein (cAMP); EC50 values determined according to the TGR5/CRE-Luciferiase Assay described herein (CRE-Luc). […] The following compounds in Tables 1 and 2 were made by using procedures described in the above Schemes and Examples, and, where applicable, by making any necessary substitutions of known materials that one skilled in the art would ordinarily understand how to do.

The target in assay [2] is T2, human TGR5 (h-TGR5) (Homo sapiens, UniProt Q8TDU6).
T2 construct: expressed in transfected cells
T2 sequence (Q8TDU6 1-330): T1 sequence (Q8TDU6 1-330)
Kind of assay: TGR5/CRE-Luciferiase Assay (HEK 293 hTGR5/CRE-Luc cells). It is filed as cell-based. Conditions: h-TGR5 CRE-Luc EC50, Table 1; read-out: CRE-Luc (EC50). In outline: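 HEK293 cells stably carrying hTGR5 and a CRE-luciferase reporter were exposed to serially diluted compounds (diluted in DMEM with 5% DMSO) for 6 h. Cells were then lysed in luciferase buffer, luminescence was read, and EC50 values were derived from dose-response curves.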

In general, EC50 refers to the concentration at which the effect is half-maximal. Consider `CC(C)(c1ccc(F)c(Cl)c1)c1cnc(SCc2ccc(S(=O)(=O)NC(=O)NN3CCCC3)cc2Cl)n1-c1ccc(F)cc1` [3-chloro-4-[({5-[1-(3-chloro-4-fluorophenyl)-1-methylethyl]-1-(4-fluorophenyl)-1H-imidazol-2-yl}thio)methyl]-N-[(pyrrolidin-1-ylamino)carbonyl]benzenesulfonamide], for which the concentration giving a half-maximal response (EC50) in assay [1] and in assay [2] was 100 to 1000 nM each time.
Turning to `COc1cc(C(C)(C)c2cnc(SCc3ccc(F)cc3Cl)n2-c2ccc(F)cc2)ccc1Cl` [2-{[(2-chloro-4-fluorophenyl)methyl]thio}-5-{1-[4-chloro-3-(methyloxy)phenyl]-1-methylethyl}-1-(4-fluorophenyl)-1H-imidazole], the EC50 in assay [1] is 100 to 1000 nM; in assay [2], under 100 nM.
In the case of `COCC1CCCN1NC(=O)NS(=O)(=O)c1ccc(CSc2ncc(C(C)(C)c3ccc(Cl)c(OC)c3)n2-c2ccc(F)cc2)c(Cl)c1` (stereo in doubt) [3-chloro-4-({[5-{1-[4-chloro-3-(methyloxy)phenyl]-1-methylethyl}-1-(4-fluorophenyl)-1H-imidazol-2-yl]thio}methyl)-N-[({(2S)-2-[(methyloxy)methyl]pyrrolidin-1-yl}amino)carbonyl]benzenesulfonamide], in assay [1], the EC50 is 100 to 1000 nM.
Still for that read-out and setting: with `CC(C)(c1ccc(S(C)(=O)=O)cc1)c1cnc(SCc2ccc(S(=O)(=O)NC(=O)NN3CCCC3)cc2Cl)n1-c1ccc(F)c(F)c1` [3-chloro-4-({[1-(3,4-difluorophenyl)-5-{1-methyl-1-[4-(methylsulfonyl)phenyl]ethyl}-1H-imidazol-2-yl]thio}methyl)-N-[(pyrrolidin-1-ylamino)carbonyl]benzenesulfonamide] the figure was 1000 to 10000 nM; with `COc1cc(-n2c(C(C)(C)c3ccc(F)cc3)cnc2SCc2ccc(S(=O)(=O)NC(=O)NN3CCCC3)cc2Cl)ccc1F` [3-chloro-4-[({1-[4-fluoro-3-(methyloxy)phenyl]-5-[1-(4-fluorophenyl)-1-methylethyl]-1H-imidazol-2-yl}thio)methyl]-N-[(pyrrolidin-1-ylamino)carbonyl]benzenesulfonamide], 100 to 1000 nM; with `CC(C)(c1ccc(S(C)(=O)=O)cc1)c1cnc(SCc2c(F)cc(C(=O)O)cc2F)n1-c1ccc(F)cn1` [3,5-difluoro-4-({[1-(5-fluoropyridin-2-yl)-5-{1-methyl-1-[4-(methylsulfonyl)phenyl]ethyl}-1H-imidazol-2-yl]thio}methyl)benzoic acid], 1000 to 10000 nM.
For `Cc1cc(-n2c(C(C)(C)c3ccc(S(C)(=O)=O)cc3)cnc2SCc2ccc(S(=O)(=O)NC(=O)NN3CCCC3)cc2Cl)ccc1F` [3-chloro-4-({[1-(4-fluoro-3-methylphenyl)-5-{1-methyl-1-[4-(methylsulfonyl)phenyl]ethyl}-1H-imidazol-2-yl]thio}methyl)-N-[(pyrrolidin-1-ylamino)carbonyl]benzenesulfonamide], the EC50 in assay [1] was 1000 to 10000 nM.
As to `COc1cc(C(C)(C)c2cnc(SCc3ccc(S(=O)(=O)NC(=O)NN4CCCC4)cc3Cl)n2-c2ccc(F)cc2)ccc1S(C)(=O)=O` [3-chloro-4-({[1-(4-fluorophenyl)-5-{1-methyl-1-[3-(methyloxy)-4-(methylsulfonyl)phenyl]ethyl}-1H-imidazol-2-yl]thio}methyl)-N-[(pyrrolidin-1-ylamino)carbonyl]benzenesulfonamide], the EC50 in assay [1] lay in the range of 100 to 1000 nM.
On to `Cc1cc(-n2c(C(C)(C)c3ccc(F)cc3)cnc2SCc2ccc(S(=O)(=O)NC(=O)NN3CCCC3)cc2Cl)ccc1F` [3-chloro-4-[({1-(4-fluoro-3-methylphenyl)-5-[1-(4-fluorophenyl)-1-methylethyl]-1H-imidazol-2-yl}thio)methyl]-N-[(pyrrolidin-1-ylamino)carbonyl]benzenesulfonamide], for which the EC50 in assay [1] lay in the range of 100 to 1000 nM.
As to `CNS(=O)(=O)c1ccc(C(C)(C)c2cnc(SCc3ccc(S(=O)(=O)NC(=O)NN4CCCC4)cc3Cl)n2-c2ccc(F)cc2)cc1Cl` [2-chloro-4-{1-[2-({[2-chloro-4-({[(pyrrolidin-1-ylamino)carbonyl]amino}sulfonyl)phenyl]methyl}thio)-1-(4-fluorophenyl)-1H-imidazol-5-yl]-1-methylethyl}-N-methylbenzenesulfonamide], the EC50 in assay [1] was 1000 to 10000 nM.
As to `CC(C)(c1ccc(S(C)(=O)=O)cc1)c1cnc(SCc2ccc(Cl)c(-c3nnn[nH]3)c2)n1-c1ccc(F)cc1` [5-[2-chloro-5-({[1-(4-fluorophenyl)-5-{1-methyl-1-[4-(methylsulfonyl)phenyl]ethyl}-1H-imidazol-2-yl]thio}methyl)phenyl]-1H-tetrazole], the half-maximal effective concentration (EC50) in assay [1] lay in the range of 1000 to 10000 nM.
In the case of `CC(C)(c1ccc(Cl)cc1)c1cnc(SCc2ccc(S(=O)(=O)NC(=O)NN3CCCC3)cc2Cl)n1-c1ccc(F)cc1F` [3-chloro-4-[({5-[1-(4-chlorophenyl)-1-methylethyl]-1-(2,4-difluorophenyl)-1H-imidazol-2-yl}thio)methyl]-N-[(pyrrolidin-1-ylamino)carbonyl]benzenesulfonamide], in assay [1], the EC50 fell in the range of 1000 to 10000 nM.
Regarding `CC(C)(c1ccc(S(N)(=O)=O)cc1)c1cnc(SCc2ccc(S(=O)(=O)NC(=O)NN3CCOCC3)cc2Cl)n1-c1ccc(F)c(Cl)c1` [4-({[5-{1-[4-(aminosulfonyl)phenyl]-1-methylethyl}-1-(3-chloro-4-fluorophenyl)-1H-imidazol-2-yl]thio}methyl)-3-chloro-N-[(morpholin-4-ylamino)carbonyl]benzenesulfonamide], in assay [1], the EC50 was 1000 to 10000 nM.
For the compound `COc1cc(C(C)(C)c2cnc(SCc3ccc(S(=O)(=O)NC(=O)NN4CCCC4)cc3Cl)n2-c2cc(C)c(Cl)cn2)ccc1Cl` [3-chloro-4-({[5-{1-[4-chloro-3-(methyloxy)phenyl]-1-methylethyl}-1-(5-chloro-4-methylpyridin-2-yl)-1H-imidazol-2-yl]thio}methyl)-N-[(pyrrolidin-1-ylamino)carbonyl]benzenesulfonamide], in assay [1], the EC50 fell in the range of 1000 to 10000 nM.
On to `COc1cc(C(C)(C)c2cnc(SCc3ccc(S(=O)(=O)NC(=O)NCC(=O)O)cc3Cl)n2-c2ccc(F)cc2)ccc1Cl` [N-[({[3-chloro-4-({[5-{1-[4-chloro-3-(methyloxy)phenyl]-1-methylethyl}-1-(4-fluorophenyl)-1H-imidazol-2-yl]thio}methyl)phenyl]sulfonyl}amino)carbonyl]glycine], for which the EC50 in assay [1] is 100 to 1000 nM.
Regarding `CNS(=O)(=O)c1ccc(C(C)(C)c2cnc(SCc3ccc(S(=O)(=O)NC(=O)NN4CCCC4)cc3Cl)n2-c2ccc(F)cc2)cc1OC` [4-{1-[2-({[2-chloro-4-({[(pyrrolidin-1-ylamino)carbonyl]amino}sulfonyl)phenyl]methyl}thio)-1-(4-fluorophenyl)-1H-imidazol-5-yl]-1-methylethyl}-N-methyl-2-(methyloxy)benzenesulfonamide], in assay [1], the EC50 is 100 to 1000 nM.
Take `CC(C)(c1ccc(S(C)(=O)=O)cc1)c1cnc(SCc2ccc(Cl)c(-c3nnn[nH]3)c2)n1-c1ccc(F)c(F)c1` [5-[2-chloro-5-({[1-(3,4-difluorophenyl)-5-{1-methyl-1-[4-(methylsulfonyl)phenyl]ethyl}-1H-imidazol-2-yl]thio}methyl)phenyl]-1H-tetrazole]: in assay [1], the concentration for a half-maximal effect (EC50) lay within 1000 to 10000 nM.
For `COc1cc(C(C)(C)c2cnc(SCc3ccc(S(=O)(=O)NC(=O)NN4CCCC4)cc3Cl)n2-c2ncc(F)cc2F)ccc1Cl` [3-chloro-4-({[5-{1-[4-chloro-3-(methyloxy)phenyl]-1-methylethyl}-1-(3,5-difluoropyridin-2-yl)-1H-imidazol-2-yl]thio}methyl)-N-[(pyrrolidin-1-ylamino)carbonyl]benzenesulfonamide], the EC50 in assay [1] was 1000 to 10000 nM.
Take `CC(C)(c1ccc(S(N)(=O)=O)cc1)c1cnc(SCc2ccc(S(=O)(=O)NC(=O)NN3CCOCC3)cc2Cl)n1-c1ccc(F)c(F)c1` [4-({[5-{1-[4-(aminosulfonyl)phenyl]-1-methylethyl}-1-(3,4-difluorophenyl)-1H-imidazol-2-yl]thio}methyl)-3-chloro-N-[(morpholin-4-ylamino)carbonyl]benzenesulfonamide]: in assay [1], the concentration giving a half-maximal response (EC50) was in the range of 1000 to 10000 nM.
Consider `CC(C)(c1ccc(F)c(C(F)F)c1)c1cnc(SCc2ccc(S(=O)(=O)NC(=O)NN3CCCC3)cc2Cl)n1-c1ccc(F)cc1` [3-chloro-4-({[5-{1-[3-(difluoromethyl)-4-fluorophenyl]-1-methylethyl}-1-(4-fluorophenyl)-1H-imidazol-2-yl]thio}methyl)-N-[(pyrrolidin-1-ylamino)carbonyl]benzenesulfonamide], for which the EC50 in assay [1] was 1000 to 10000 nM.

The values are drawn from patent US8785488B2 (Exelixis Patent Company LLC, priority 2009, dated 2014).
